Measured values taken from patent US20140039008A1, “METHODS FOR THE ADMINISTRATION OF ILOPERIDONE” (VANDA PHARMACEUTICALS, INC., priority 2004, published 2014).
Where “and” joins values, the source holds several entries; their conditions need not be identical. Equal entries are not always repeated. Marks after values point to notes of the source that are not given here.

How the values were obtained:
[1] = in vivo
patients [2] = assay: Example 2: QTcF change from baseline in iloperidone-treated patients; format: in vivo, human
Excerpt: From the 300 iloperidone-treated patients initially genotyped for the CYP2D6*4 and * 10 variants (VP-VYV-683-3101), 222 remaining DNA samples were used for this extended pharmacogenomic analysis. One patient was excluded from the analysis due to inconsistent results for the CYP2D6 allele *4 generated by Quest Diagnostics Central Laboratory (Collegeville, Pa.) and Cogenics (Morrisville, N.C.). Pharmacokinetic data of the (iloperidone+P88)/P95 ratio was available for 168 of these patients. QT measurement at Day 14 and 28 was available for 169 and 146 patients respectively.
Analyses were performed on observed case data using an ANCOVA model with the baseline value as a covariate for the change from baseline in QTc (Fridericia formula) and using an ANOVA model for iloperidone blood exposure at Day 14 and Day 28. Linkage disequilibrium analysis was performed using Haploview v4.0 (Barrett et al, 2005).

[3] = in vivo; remark: listed apart in the source
patients [4] = assay: Example 1: QTc change from baseline after iloperidone by CYP2D6 genotype or metabolite ratio; format: in vivo, human; details: for QTc change at Period 2: after CYP2D6 inhibitor
Excerpt: The research leading to the present invention was designed to examine the effect of different doses of iloperidone relative to the effect of ziprasidone and quetiapine on QTc duration under carefully controlled conditions. To further evaluate the possible relationship between exposure to iloperidone and the comparators to QTc duration, reassessment after pharmacological inhibition of the principle metabolic pathways for each drug, under steady-state conditions, was also planned.
The addition of metabolic inhibitors in this study therefore allowed for an evaluation of the effect of increasing blood-concentration of iloperidone and/or its metabolites on QT duration. More specifically, this study allowed for an evaluation of the effect of iloperidone on QTc before and after the addition of the CYP2D6 inhibitor, paroxetine, as well as before and after the addition of the CYP3A4 inhibitor, ketoconazole.
The 128 individuals that participated were a good representation of the total sample of 165 individuals that participated in the trial. 22 of 29 total were from the iloperidone 8 mg bid group, 30 of 34 were from the iloperidone 12 mg bid group, 22 of 31 from the 24 mg qd group, 3 of 5 of the risperidone group, 28 of 33 of the ziprazidone group, and 23 of 33 of the quetiapine group.
In order to understand whether the difference in concentration of P88 at Period 1 Tmax was relevant to the increases in QTc after the addition of the inhibitors, the observed mean of P88 for the CYP2D6G1846A AG group was used to divide all individuals into two classes. The first includes individuals with P88 concentrations at Period 3, after the addition of both inhibitors, of equal to or less than 34 ng/mL and the second class includes individuals with P88 concentration greater than 34 ng/mL. The two classes were then compared in regards to the QTc change from baseline at Period 3. Using an ANOVA statistic for the first class […] (n=55) the QTc mean change from baseline in Period 3 was 22.7 msec and that for P88≦34 (n=12) the mean QTc for the same period was 7.7 msec.
While the results for some groups are not statistically significant, they do indicate a trend supporting the hypothesis that QTc prolongation is correlated to P88/P95 ratio. Similar results were obtained when cutoff ratios of 3.0 and 4.0 were analyzed, providing further support to the hypothesis that the extent of QTc prolongation a patient may experience after treatment can be predicted by measuring P88 and P95 blood levels.
Similar results were observed when considering QTc correlation to the (iloperidone+P88)/P95 ratio. […] While the results for some groups are not statistically significant, they do indicate a trend supporting the hypothesis that QTc prolongation is correlated to (iloperidone+P88)/P95 ratio. Indeed, when cutoff ratios of 3 and higher were analyzed, similar results were obtained providing further support to the hypothesis that the extent of QTc prolongation a patient may experience after treatment can be predicted by measuring iloperidone, P88 and P95 blood levels.

patients [5] = assay: placebo-controlled Phase III studies of iloperidone, QTcF change; format: in vivo, human; details: for mean change in the QTcF: most recent study
Experimental: Iloperidone is a benzisoxazole-piperidinyl derivative, currently in development for the treatment of CNS disorders. […] At lower doses of iloperidone (4 mg-16 mg) QTcF prolongation was minimal (0.1-5 msec). In the most recent study, a greater prolongation was observed when higher doses of iloperidone (20-24 mg/day) were studied. The mean change in the QTcF at doses 20-24 mg/day was 8.5 msec, and 4.6 msec in the 12-16 mg/day dose range in this study.

increase of the area under the curve (AUC) [1]: 131%
increase in the concentrations [3]: 38-58%
SMILES: COc1cc(C(C)=O)ccc1OCCCN1CCC(c2noc3cc(F)ccc23)CC1 [iloperidone, 1-[4-[3-[4-(6-fluoro-1,2-benzisoxazol-3-yl)-1-piperidinyl]propoxy]-3-methoxyphenyl]ethanone]
QTcF change, LS Squares Mean QTcF change from baseline (patients [2]; Day 14, 1 or 2 non-functional CYP2D6 alleles): 16.3 msec and 16.3 (N = 59) msec
QTcF change, LS Squares Mean QTcF change from baseline (patients [2]; Day 14, 2 functional CYP2D6 alleles): 9.7 msec and 9.7 (N = 110) msec
QTcF change, LS Squares Mean QTcF change from baseline (patients [2]; Day 14, (iloperidone+P88)/P95 ratio >1): 16.0 msec and 16.0 (N = 99) msec
QTcF change, LS Squares Mean QTcF change from baseline (patients [2]; Day 14, (iloperidone+P88)/P95 ratio ≦1): 7.9 msec and 7.9 (N = 127) msec
QTcF change, LS Squares Mean QTcF change from baseline (patients [2]; Day 28, 1 or 2 non-functional CYP2D6 alleles): 11.4 msec and 11.4 (N = 56) msec
QTcF change, LS Squares Mean QTcF change from baseline (patients [2]; Day 28, 2 functional CYP2D6 alleles): 4.4 msec and 4.4 (N = 90) msec
QTcF change, LS Squares Mean QTcF change from baseline (patients [2]; Day 28, (iloperidone+P88)/P95 ratio >1): 10.1 msec and 10.1 (N = 79) msec
QTcF change, LS Squares Mean QTcF change from baseline (patients [2]; Day 28, (iloperidone+P88)/P95 ratio ≦1): 4.8 msec and 4.8 (N = 119) msec
LSMean QTc change from Baseline 8 mg bid (patients [4]; (ILO + P88)/P95 ratio <3): 7.2 (n = 23)
LSMean QTc change from Baseline 12 mg bid (patients [4]; (ILO + P88)/P95 ratio <3): 8.7 (n = 31)
LSMean QTc change from Baseline 8 + 12 mg bid (patients [4]; (ILO + P88)/P95 ratio <3): 8.3 (n = 54)
LSMean QTc change from Baseline 24 qd (patients [4]; (ILO + P88)/P95 ratio <3): 14.4 (n = 24)
LSMean QTc change from Baseline All Treatment Groups (patients [4]; (ILO + P88)/P95 ratio <3): 10.424 (n = 78)
LSMean QTc change from Baseline 8 mg bid (patients [4]; (ILO + P88)/P95 ratio >3): 21.3 (n = 5)
LSMean QTc change from Baseline 12 mg bid (patients [4]; (ILO + P88)/P95 ratio >3): 15.2 (n = 3)
LSMean QTc change from Baseline 8 + 12 mg bid (patients [4]; (ILO + P88)/P95 ratio >3): 17.3 (n = 8)
LSMean QTc change from Baseline 24 qd (patients [4]; (ILO + P88)/P95 ratio >3): 30.5 (n = 5)
LSMean QTc change from Baseline All Treatment Groups (patients [4]; (ILO + P88)/P95 ratio >3): 20.031 (n = 13)
QTc change at Period 1 (patients [4]; CYP2D6C100T CC, 8 mg bid): 7.8 (17)
QTc change at Period 2 (patients [4]; CYP2D6C100T CC, 8 mg bid): 11.7 (16)
QTc change at Period 1 (patients [4]; CYP2D6C100T CC, 12 mg bid): 11.8 (23)
QTc change at Period 2 (patients [4]; CYP2D6C100T CC, 12 mg bid): 14.5 (21)
QTc change at Period 1 (patients [4]; CYP2D6C100T CC, 24 mg qd): 9.5 (14)
QTc change at Period 2 (patients [4]; CYP2D6C100T CC, 24 mg qd): 16.4 (15)
QTc change at Period 1 (patients [4]; CYP2D6C100T CT, 8 mg bid): 2.9 (2)
QTc change at Period 2 (patients [4]; CYP2D6C100T CT, 8 mg bid): 12.5 (2)
QTc change at Period 1 (patients [4]; CYP2D6C100T CT, 12 mg bid): 5.8 (6)
QTc change at Period 2 (patients [4]; CYP2D6C100T CT, 12 mg bid): 8.7 (6)
QTc change at Period 1 (patients [4]; CYP2D6C100T CT, 24 mg qd): 19.0 (5)
QTc change at Period 2 (patients [4]; CYP2D6C100T CT, 24 mg qd): 20.6 (5)
QTc change at Period 1 (patients [4]; CYP2D6C100T TT, 8 mg bid): −8.4 (1)
QTc change at Period 2 (patients [4]; CYP2D6C100T TT, 8 mg bid): −0.7 (1)
QTc change at Period 1 (patients [4]; CYP2D6C100T TT, 12 mg bid): 17.7 (1)
QTc change at Period 2 (patients [4]; CYP2D6C100T TT, 12 mg bid): 25.0 (1)
QTc change at Period 1 (patients [4]; CYP2D6C100T TT, 24 mg qd): 38.4 (1)
QTc change at Period 2 (patients [4]; CYP2D6C100T TT, 24 mg qd): 28.4 (1)
QTc change at Period 1 (patients [4]; CYP2D6G1846A AA, 12 mg bid): 17.7 (1)^a
QTc change at Period 2 (patients [4]; CYP2D6G1846A AA, 12 mg bid): 25.0 (1)
QTc change at Period 1 (patients [4]; CYP2D6G1846A AA, 24 mg qd): 38.4 (1)
QTc change at Period 2 (patients [4]; CYP2D6G1846A AA, 24 mg qd): 28.4 (1)
QTc change at Period 1 (patients [4]; CYP2D6G1846A AG, 8 mg bid): −0.8 (3)
QTc change at Period 2 (patients [4]; CYP2D6G1846A AG, 8 mg bid): 8.1 (3)
QTc change at Period 1 (patients [4]; CYP2D6G1846A AG, 12 mg bid): 5.8 (6)
QTc change at Period 2 (patients [4]; CYP2D6G1846A AG, 12 mg bid): 8.7 (6)
QTc change at Period 1 (patients [4]; CYP2D6G1846A AG, 24 mg qd): 19.0 (5)
QTc change at Period 2 (patients [4]; CYP2D6G1846A AG, 24 mg qd): 20.6 (5)
QTc change at Period 1 (patients [4]; CYP2D6G1846A GG, 8 mg bid): 7.8 (17)
QTc change at Period 2 (patients [4]; CYP2D6G1846A GG, 8 mg bid): 11.7 (18)
QTc change at Period 1 (patients [4]; CYP2D6G1846A GG, 12 mg bid): 11.8 (23)
QTc change at Period 2 (patients [4]; CYP2D6G1846A GG, 12 mg bid): 14.5 (21)
QTc change at Period 1 (patients [4]; CYP2D6G1846A GG, 24 mg qd): 14.0 (14)
QTc change at Period 2 (patients [4]; CYP2D6G1846A GG, 24 mg qd): 16.4 (15)
LSMean QTc change from Baseline 8 mg bid (patients [4]; P88/P95 ratio <2): 7.2 (n = 23)
LSMean QTc change from Baseline 12 mg bid (patients [4]; P88/P95 ratio <2): 8.7 (n = 31)
LSMean QTc change from Baseline 8 + 12 mg bid (patients [4]; P88/P95 ratio <2): 8.3 (n = 54)
LSMean QTc change from Baseline 24 qd (patients [4]; P88/P95 ratio <2): 13.9 (n = 24)
LSMean QTc change from Baseline All Treatment Groups (patients [4]; P88/P95 ratio <2): 10.244 (n = 78)
LSMean QTc change from Baseline 8 mg bid (patients [4]; P88/P95 ratio >2): 21.3 (n = 5)
LSMean QTc change from Baseline 12 mg bid (patients [4]; P88/P95 ratio >2): 17.4 (n = 3)
LSMean QTc change from Baseline 8 + 12 mg bid (patients [4]; P88/P95 ratio >2): 18.3 (n = 8)
LSMean QTc change from Baseline 24 qd (patients [4]; P88/P95 ratio >2): 29.4 (n = 5)
LSMean QTc change from Baseline All Treatment Groups (patients [4]; P88/P95 ratio >2): 21.111 (n = 13)
QTc mean change from baseline in Period 3 (patients [4]; individuals with P88>34 ng/mL at Period 3, after addition of both inhibitors): 22.7 ms
QTc mean change from baseline in Period 3 (patients [4]; individuals with P88≦34 ng/mL at Period 3, after addition of both inhibitors): 7.7 ms
mean change in the QTcF (patients [5]; 12-16 mg/day dose range): 4.6 ms
mean change in the QTcF (patients [5]; 20-24 mg/day): 8.5 ms
QTcF prolongation (patients [5]; lower doses 4 mg-16 mg): 0.1 to 5 ms
